This assay has as its target protease K-resistance prion protein (PrP^Sc) in ScN2a cells (Mus musculus, UniProt P04925). Format: cell-based. Particulars: 6 mM HFIP for 24 hours, protease K 10 μg/ml 37° C. 30 minutes, Western blotting, FIG. 2 #5 to #8. On the technique in general: A western blot detects proteins with antibodies after separation by electrophoresis.

On to `OC(C(F)(F)F)C(F)(F)F` [HFIP, 1,1,1,3,3,3-hexafluoro-2-propanol], for which the “resistance of prion protein to protease K” value was “resistance to protease K was reduced”.
